“And” between values parts separate entries of the source, which are not always exact repeats. Identical values can stand only once. “Also recorded” adds a separate entry of the source.
Experiments:
[1] = Critical micelle concentration by fluorescence staining with diphenylhexatriene (DPH); type: physicochemical; conditions: aqueous solution
Protocol: While a method for measuring CMC is not particularly limited, a method widely known in the art may be used, and the measurement may be performed by, for example, a fluorescence staining method using diphenylhexatriene (DPH).
(§1) Specifically, the critical micellar concentration (CMC) was measured using fluorescence staining and diphenylhexatriene (DPH), and the hydrodynamic radii (Rh) of the micelles formed by agents were measured through a dynamic light scattering (DLS) experiment. The measured results are shown in Tables 1 and 2, compared with a conventional amphiphilic molecule (detergent), DDM.

[2] = Hydrodynamic radius and size distribution of micelles by dynamic light scattering (DLS); type: physicochemical; conditions: for Rh (nm), hydrodynamic radius of micelles: 1.0 wt % stated for M-/O-XMAs (FIG. 37); for size distribution of micelles (number of micelle sets): FIGS. 36 and 37
Protocol: A method for measuring the radius of a micelle is not particularly limited, but a method well known in the art may be used, and for example, the measurement may be performed using a dynamic light scattering (DLS) experiment.
as §1

[3] = biological target: T1, human β2 adrenergic receptor (β2AR) (Homo sapiens, UniProt P07550); experiment: [3H]-dihydroalprenolol radioligand binding of β2AR purified in detergent; conditions: 10 nM [3H]-DHA, 30 minutes, room temperature
T1 construct: made in house
T1 sequence (P07550 whole entry): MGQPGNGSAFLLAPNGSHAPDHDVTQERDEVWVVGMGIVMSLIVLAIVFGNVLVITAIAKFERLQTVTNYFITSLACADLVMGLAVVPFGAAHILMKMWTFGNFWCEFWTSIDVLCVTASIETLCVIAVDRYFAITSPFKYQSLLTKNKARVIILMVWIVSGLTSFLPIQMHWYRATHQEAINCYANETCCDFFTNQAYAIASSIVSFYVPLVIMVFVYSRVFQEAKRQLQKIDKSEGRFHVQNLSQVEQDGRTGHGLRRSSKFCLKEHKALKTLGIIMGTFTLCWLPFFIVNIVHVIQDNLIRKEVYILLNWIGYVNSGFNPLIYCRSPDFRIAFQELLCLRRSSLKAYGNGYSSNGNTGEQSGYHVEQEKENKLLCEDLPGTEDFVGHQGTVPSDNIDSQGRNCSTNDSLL
Protocol: An activation degree of a receptor (mBBr-β2AR) purified by DDM or XMAs was measured by [^3H]-dihydroalprenolol ([^3H]-DHA) binding.
Specifically, a radioligand binding assay was performed by the following method. β2AR was purified in the presence of 0.1% DDM. After β2AR was reloaded into an M1 Flag column in the presence of 2 mM CaCl2, a DDM (0.1%)-XMA (0.2%) buffer mixture was prepared in a ratio of 50:50, 20:80, 10:90, 5:95 or 0:100. The receptor was eluted in 20×CMC XMA with 5 mM EDTA and 0.2 mg/ml of a free Flag peptide. 0.1 pmol purified β2AR solubilized in DDM, P-XMA-C11, P-XMA-C12, M-XMAs or O-XMAs was incubated with 10 nM of radioactive DHA [^3H]-dihydroalprenolol (DHA) for 30 minutes at room temperature. The mixture was loaded into a G-50 column, and a flow-through was collected with a binding buffer (20 mM HEPES pH 7.5, supplemented with 0.5 mg/ml BSA, 100 mM NaCl), and further filled with 15 ml of a scintillation fluid. Receptor-binding [^3H]DHA was measured with a scintillation counter (Beckman). Non-specific binding of [^3H]-DHA was calculated by adding 1 μM of alprenolol (Sigma) in the same binding reaction. The binding degree of [^3H]-DHA was measured as a column graph.

[4] = test system: leucine transporter (LeuT); experiment: LeuT long-term stability, [3H]-Leu binding by scintillation proximity assay (SPA); type: biochemical, Aquifex aeolicus; conditions: room temperature, 12-day incubation; for LeuT long-term stability (ligand binding activity): CMC+0.04 wt %; for LeuT ligand binding activity maintained: CMC+0.2 wt %
Protocol: An experiment for measuring the structural stability of a LeuT protein due to M-XMAs or O-XMAs was performed. Each amphiphilic compound was used at CMC+0.04 wt % (a) or CMC+0.2 wt % (b), and the ligand-binding activity of LeuT was determined using [^3H]-Leu by scintillation proximity assay (SPA). Measurement was regularly performed at room temperature during a 12-day incubation period.
Specifically, wild-type leucine transporter (LeuT) derived from thermophilic bacteria Aquifex aeolicus was purified according to a previously disclosed protocol (G. Deckert et al., Nature 1998, 392, 353-358). In summary, LeuT was expressed in E. coli C41 (DE3) incubated in lysogeny broth supplemented with 0.1 mg/ml ampicillin. Protein expression was induced by adding isopropyl β-D-thiogalactopyranoside at the final concentration of 0.1 mM. Cell membranes were isolated from disrupted cells (Constant Systems Homogenizers, Kennesaw, Ga.), and solubilized in 1% (w/v) n-dodecyl-β-D-maltopyranoside (DDM; Affymetrix, Santa Clara, Calif.). After solubilization, LeuT was fixed to a chelating Sepharose Fast Flow resin (GE Healthcare), and approximately 90 to 100% pure LeuT was eluted in 20 mM Tris-HCl (pH 7.5), 199 mM KCl, 1 mM NaCl, 0.05% (w/v) DDM and 300 mM imidazole. Afterward, the purified LeuT (approximately 1.2 mg mL^−1) was diluted 10 times with buffer which is the same as that used above and supplemented with M-XMAs and O-XMA, except DDM and imidazole, at the final concentration of CMC+0.04% (w/v) or CMC+0.2% (w/v). DDM and P-XMA-C11 were used as positive controls. Protein samples were stored at room temperature, and protein activity at a predetermined time was determined by measuring [^3H]-Leucine binding using SPA. SPA was performed using a total volume of 100 μL of […] of each protein sample solubilized in a buffer containing 450 mM NaCl, 50 nM [^3H]-Leucine and 0.125 mg ml^−1 copper chelate (His-Tag) YSi beads (Perkin Elmer, Denmark). A [^3H]-Leucine binding degree was measured using a MicroBeta liquid scintillation counter (Perkin Elmer).

[5] = biological target: T1, human β2 adrenergic receptor (β2AR); experiment: mBBr-β2AR fluorescence spectrum after dilution to CMC or less; type: biochemical; conditions: diluted with NH buffer, 30 minutes
Protocol: An experiment for comparing changes in protein structures of XMAs and DDM at CMC or less of an amphiphilic molecule was carried out.
Specifically, 0.5 μl of an unliganded mBB-labeled receptor solubilized in 20×CMC P-XMA-C11 or P-XMA-C12 at 50 μM was diluted with 500 μl of a NH buffer (20 mM HEPES pH 7.5, 100 mM NaCl). The protein was incubated for 30 minutes, and the mBBr spectrum was measured. The receptor solubilized in 0.1% DDM was diluted with a NH buffer, and used as a control.

[6] = biological target: T2, melibiose permease (MelB) (Salmonella typhimurium, UniProt P30878); experiment: MelB extraction from membranes and thermostability, SDS-PAGE and western blotting
T2 construct: made in house; host or cells: Salmonella typhimurium DW2 cells (ΔmelB and ΔlacZY) (so in the source); membrane preparation
T2 sequence (P30878 whole entry): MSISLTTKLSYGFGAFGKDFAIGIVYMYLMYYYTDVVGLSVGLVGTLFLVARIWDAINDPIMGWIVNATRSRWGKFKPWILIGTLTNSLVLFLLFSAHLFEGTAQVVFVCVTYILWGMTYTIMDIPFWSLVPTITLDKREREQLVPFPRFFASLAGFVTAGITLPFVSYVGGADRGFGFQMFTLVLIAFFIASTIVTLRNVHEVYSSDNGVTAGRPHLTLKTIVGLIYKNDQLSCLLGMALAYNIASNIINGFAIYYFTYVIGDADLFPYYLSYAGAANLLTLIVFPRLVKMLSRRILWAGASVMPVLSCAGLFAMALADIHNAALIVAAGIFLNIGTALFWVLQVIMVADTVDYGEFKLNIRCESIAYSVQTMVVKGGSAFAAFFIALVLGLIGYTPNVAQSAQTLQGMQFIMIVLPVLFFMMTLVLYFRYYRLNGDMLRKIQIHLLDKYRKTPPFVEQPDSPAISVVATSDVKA
Protocol: An experiment for measuring the structural stability of the Salmonella typhimurium melibiose permease (MelB) protein due to XMAs was performed. The MelB protein was extracted on a membrane using XMAs and DDM, and the amount and structure of the extracted protein were analyzed by SDS-PAGE and western blotting. A concentration of the used compound was 1.5 wt %, and the protein was extracted at a different temperature (0, 45, 55, or 65° C.) to evaluate two kinds of performance such as protein extraction efficiency and stabilization ability of the compound at the same time. Membrane samples that were not treated with XMAs or DDM were used as controls.
Specifically, MelBSt stability due to DDM and XMAs was evaluated according to the method described in the paper (P. S. Chae, et al., Nat. Methods 2010, 7, 1003-1008) written by the inventor in 2010. The protein (MelBSt) was produced using plasmid pK95ΔAHB/WT MelBSt/CH10 encoding wild-type MelB with a 10-His tag at the C-terminus and Salmonella typhimurium DW2 cells (ΔmelB and ΔlacZY). Cell growth and membrane preparation were carried out according to the method described in the paper (Nat. Commun. 2014, 5, 3009) written by A. S. Ethayathulla et al. A protein assay was performed using a Micro BCA kit (Thermo Scientific, Rockford, Ill.). To measure solubilization/stability, MelBSt-containing membrane samples (final protein concentration of 10 mg/mL) were incubated with a solubilization buffer (20 mM sodium phosphate, pH 7.5, 200 mM NaCl, 10% glycerol, 20 mM melibiose) and 1.5% (w/v) DDM, P-XMAs (P-XMA-C8, P-XMA-C9, P-XMA-C10, P-XMA-C11 and P-XMA-C12), M-XMAs (M-XMA-C11, M-XMA-C12, M-XMA-C14, M-XMA-C16 and M-XMA-C18) or O-XMAs (O-XMA-C11, O-XMA-C12, O-XMA-C14, O-XMA-C16 and O-XMA-C18) at four different temperatures (0, 45, 55 and 65° C.) for 90 minutes. Following ultracentrifugation at 355,590 g in a Beckman Optima™ MAX ultracentrifuge using a TLA-100 rotor for 45 minutes at 4° C., 20 μg proteins were separated by SDS-16% PAGE, and then immunoblotted with a Penta-His-HRP antibody (Qiagen, Germantown, Md.). MelBSt was detected using a SuperSignal West Pico chemiluminescent substrate by an ImageQuant LAS 4000 Biomolecular Imager (GE Health Care Life Sciences).

SMILES | CMC [1] | CMC (wt %) [1] [wt %] | Rh (nm), hydrodynamic radius of micelles [2] | [3H]-DHA binding degree of purified β2AR [3] | LeuT long-term stability (ligand binding activity) [4] | LeuT ligand binding activity maintained [4] | size distribution of micelles (number of micelle sets) [2] | structural change of β2AR on dilution to CMC or less [5] | MelBSt stabilization ability compared with DDM ([6]; 1.5 wt % detergent, 0, 45, 55 and 65° C.) | MelB protein extraction efficiency ([6]; 1.5 wt % detergent, 45° C., 90 minutes) | MelB protein extraction / maintained solubilization ([6]; 1.5 wt % detergent, 55° C., 90 minutes) | MelB protein extraction ([6]; 1.5 wt % detergent, 65° C., 90 minutes)
CCCCCCCCCCCCC(CO[C@@H]1OC(CO)[C@@H](O[C@H]2OC(CO)[C@@H](O)C(O)C2O)C(O)C1O)(CO[C@@H]1OC(CO)[C@@H](O[C@H]2OC(CO)[C@@H](O)C(O)C2O)C(O)C1O)Cc1cccc(C[C@](CCCCCCCCCCCC)(CO[C@@H]2OC(CO)[C@@H](O[C@H]3OC(CO)[C@@H](O)C(O)C3O)C(O)C2O)CO[C@@H]2OC(CO)[C@@H](O[C@@H]3OC(CO)[C@@H](O)C(O)C3O)C(O)C2O)c1 (stereo partly shown) [M-XMA-C12] | ~4.0 µM | ~0.0008 | 3.4 ± 0.02 nm | superior to O-XMA-C12, and similar to DDM | substantial reinforcement of long-term stability of LeuT, compared with DDM; also recorded: higher stability than O-XMA-C12 | superior at maintaining the ligand binding activity of LeuT compared to DDM; also recorded: generally better performance than O-XMA-C12 | – | – | – | – | – | –
CCCCCCCCCCCCC(CO[C@@H]1OC(CO)[C@@H](O[C@@H]2OC(CO)[C@@H](O)C(O)C2O)C(O)C1O)(CO[C@@H]1OC(CO)[C@@H](O[C@@H]2OC(CO)[C@@H](O)C(O)C2O)C(O)C1O)Cc1ccccc1CC(CCCCCCCCCCCC)(CO[C@@H]1OC(CO)[C@@H](O[C@@H]2OC(CO)[C@@H](O)C(O)C2O)C(O)C1O)CO[C@@H]1OC(CO)[C@@H](O[C@@H]2OC(CO)[C@@H](O)C(O)C2O)C(O)C1O (stereo partly shown) [O-XMA-C12] | ~6.0 µM | ~0.0011 | 3.2 ± 0.03 nm | – | substantial reinforcement of long-term stability of LeuT, compared with DDM | superior at maintaining the ligand binding activity of LeuT compared to DDM | – | – | – | – | – | –
CCCCCCCCCCCCC(CO[C@@H]1OC(CO)[C@@H](O[C@H]2OC(CO)[C@@H](O)C(O)C2O)C(O)C1O)(CO[C@@H]1OC(CO)[C@@H](O[C@H]2OC(CO)[C@@H](O)C(O)C2O)C(O)C1O)Cc1ccc(CC(CCCCCCCCCCCC)(CO[C@@H]2OC(CO)[C@@H](O[C@H]3OC(CO)[C@@H](O)C(O)C3O)C(O)C2O)CO[C@@H]2OC(CO)[C@@H](O[C@H]3OC(CO)[C@@H](O)C(O)C3O)C(O)C2O)cc1 (stereo partly shown) [P-XMA-C12] | ~1 µM | ~0.0002 | 3.7 nm and 3.7 ± 0.01 nm | radioactive-ligand binding degree similar to the receptor purified by DDM | – | – | two sets of micelles having different radii | less structural change | higher MelBSt stabilization ability than DDM | extraction efficiency at the same level as DDM | higher MelBSt extraction ability than DDM | extracted MelBSt

Further lines, with some results ahead:

CMC [1] | CMC (wt %) [1] [wt %] | Rh (nm), hydrodynamic radius of micelles [2] | SMILES | [3H]-DHA binding degree of purified β2AR [3] | LeuT long-term stability (ligand binding activity) [4] | LeuT ligand binding activity maintained [4] | size distribution of micelles (number of micelle sets) [2] | structural change of β2AR on dilution to CMC or less [5] | MelBSt stabilization ability compared with DDM ([6]; 1.5 wt % detergent, 0, 45, 55 and 65° C.) | MelB protein extraction efficiency ([6]; 1.5 wt % detergent, 45° C., 90 minutes) | MelB protein extraction / maintained solubilization ([6]; 1.5 wt % detergent, 55° C., 90 minutes) | MelB protein extraction ([6]; 1.5 wt % detergent, 65° C., 90 minutes)
~6.0 µM | ~0.0011 | 3.2 ± 0.01 nm | CCCCCCCCCCCC(CO[C@@H]1OC(CO)[C@@H](O[C@H]2OC(CO)[C@@H](O)C(O)C2O)C(O)C1O)(CO[C@@H]1OC(CO)[C@@H](O[C@H]2OC(CO)[C@@H](O)C(O)C2O)C(O)C1O)Cc1cccc(C[C@](CCCCCCCCCCC)(CO[C@@H]2OC(CO)[C@@H](O[C@H]3OC(CO)[C@@H](O)C(O)C3O)C(O)C2O)CO[C@@H]2OC(CO)[C@@H](O[C@@H]3OC(CO)[C@@H](O)C(O)C3O)C(O)C2O)c1 (stereo partly shown) [M-XMA-C11] | higher radioactive-ligand binding degree than P-XMA-C11 | – | – | – | – | – | – | – | –
~3 µM and ~3.0 µM | ~0.0006 | 3.3 ± 0.03 nm | CCCCCCCCCCCC(CO[C@@H]1OC(CO)[C@@H](O[C@H]2OC(CO)[C@@H](O)C(O)C2O)C(O)C1O)(CO[C@@H]1OC(CO)[C@@H](O[C@H]2OC(CO)[C@@H](O)C(O)C2O)C(O)C1O)Cc1ccc(CC(CCCCCCCCCCC)(CO[C@@H]2OC(CO)[C@@H](O[C@H]3OC(CO)[C@@H](O)C(O)C3O)C(O)C2O)CO[C@@H]2OC(CO)[C@@H](O[C@H]3OC(CO)[C@@H](O)C(O)C3O)C(O)C2O)cc1 (stereo partly shown) [P-XMA-C11] | radioactive-ligand binding degree similar to the receptor purified by DDM | – | – | two sets of micelles having different radii | less structural change | – | – | – | –

Reference: US10647738B2, “Xylene-based amphiphilic compound and use thereof” (Industry-University Cooperation Foundation Hanyang …, priority 2016, dated 2020)
